Format in all cases: in vivo
In assay [1] the test system is cAMP. Description: cAMP content in rabbit blood platelets. To be noted: per mg protein; Aminophylline 0.6 mg/kg, DSP 1.0 mg/kg. As to the method: • 5. Effects on cAMP content in rabbit blood platelets. cAMP content is tested by radioimmunoassay. Protein content is measured by the Hartree Method.
The subject of assay [2] is cAMP. As to the kind of experiment: cAMP content in rat blood plasma. Particulars: Aminophylline 30 mg/kg, DSP 50 mg/kg. As to the method:
• 6. Effects on cAMP content in rat blood plasma. Blood cAMP content was tested by radioimmunoassay.

In the next assay the test system is serum lipoprotein. As to the kind of experiment: High-fats rabbits: lipoprotein in blood serum. To be noted: DSP 4 g/kg/day, Simvastatin 1 mg/kg/day. As to the method: (1) Normal control group (8 rabbits) normal feeding; (2) High-fats group: High-fats feeding. All were fed for 4 weeks. Weight and lipoprotein in the blood were measured. […] High-fats control group, 2. High-dosage of DSP group (4 g dosage/kg/day), 3. […] All are given distilled water except those with special prescriptions and ends after 12 weeks testing.

Another assay deals with aorta AS. Description: High-fats rabbits: aortic lesion and lipoprotein content in aorta. To be noted: 8 weeks, DSP 4 g/kg/Day, Simvastatin 1 mg/kg/Day. On the procedure:
(§1) 1.1 Experimental Groups. (1) Normal control group (8 rabbits) normal feeding; (2) High-fats group: High-fats feeding. All were fed for 4 weeks. Weight and lipoprotein in the blood were measured. The high-fats group was divided into 4 sub-groups (12 rabbits in each sub-group). 1. High-fats control group, 2. High-dosage of DSP group (4 g dosage/kg/day), 3. Low-dosage DSP group (2 g dosage/kg/day), and 4. […] All are given distilled water except those with special prescriptions and ends after 12 weeks testing.
1.2 Experimental Methods and Standards. (1) Examination of Aortic Lesion. Drugs were given to the animals for 8 weeks, and then the animals were killed. The aortas were removed and the unnecessary membranes and fats discarded. The aortas were cut open along the mid line. One-fifth of the aorta was removed for lipid examination. […] The percentage of the lesion part was calculated, and a grading was given. […] The average thickness of the interior membrane spot plates was measured by microscopic parameter. […] The number of blood vessels with spot plates in the coronary artery and the lesion percentage (lesion percentage=the number of blood vessels with lesion/the total number of blood vessels in each transect X100%) were observed, calculated and graded according to the blocking of the blood vessels with spot plates. The average points were calculated by accumulation.

Another assay deals with liver TG. Description: High-fats rabbits: liver TG and liver coefficient. To be noted: DSP 4 g/kg, Simvastatin 1 mg/kg. As to the method: as §1
A further assay relates to SOD, MDA. Description: High-fats rabbits: SOD activity and MDA content in blood serum and liver. Particulars: 8 weeks, DSP 4 g raw medicine/kg/d, Simvastatin 1 mg/kg/d. On the procedure: Method. The experimental groups were divided into: (1) Normal control group. Normal feeding; (2) High-fats feeding group: high-fats feeding.
All were fed for 4 weeks. weight and lipoprotein content in the blood were measured. […] Medicine was given to the rabbits through the stomach, according to prescription. The same volume of distilled water was given to the normal control group and high-fats feeding group. Testing ended after 12 weeks.

Molecules are shown by their SMILES. Marks after values point to notes of the source that are not given here.

Turning to `Cn1c(=O)c2[nH]cnc2n(C)c1=O` [Aminophylline], in the assay on cAMP [1], the “cAMP content in rabbit platelets” value worked out at 15.4 ± 3.9 pmol/mg. In addition, the “blood plasma cAMP content” value in the assay on cAMP [2] (30 min after treatment) is given as 20.7 ± 3.2 Pmol/ml plasma; in the assay with cAMP [2] (60 min after treatment), 21.1 ± 3.8 Pmol/ml plasma.

On to `CCC(C)(C)C(=O)O[C@H]1C[C@@H](C)C=C2C=C[C@H](C)[C@H](CC[C@@H]3C[C@@H](O)CC(=O)O3)[C@H]21` [Simvastatin], for which, in the assay on serum lipoprotein (2 weeks after dosage), the “LDC-C, blood serum” value is 19.54 ± 5.71 mmol/L; the “TC, blood serum” value was 27.06 ± 4.46 mmol/L; the “TC/HDL-C, blood serum” value is given as 32.29 ± 7.39; the “TG, blood serum” value is on record as 1.85 ± 0.55 mmol/L. For the same compound, in the assay with serum lipoprotein (2 weeks after dosage), the “VLDC-C, blood serum” value was determined as 6.66 ± 1.65 mmol/L. In the assay with serum lipoprotein (4 weeks after dosage), the “LDC-C, blood serum” value was 18.22 ± 3.37 mmol/L; the “TC, blood serum” value stood at 26.1 ± 3.03 mmol/L; the “TC/HDL-C, blood serum” value is recorded as 19.6 ± 4.38; the “TG, blood serum” value worked out at 1.80 ± 0.31 mmol/L. The “VLDC-C, blood serum” value in the assay on serum lipoprotein (4 weeks after dosage) is 6.54 ± 0.74 mmol/L. For the same compound, in the assay with serum lipoprotein (8 weeks after dosage), the “LDC-C, blood serum” value was 17.78 ± 5.69 mmol/L; the “TC, blood serum” value came to 26.3 ± 4.40 mmol/L; the “TC/HDL-C, blood serum” value worked out at 22.3 ± 6.54; the “TG, blood serum” value amounted to 2.70 ± 0.77 mmol/L. Besides, in the assay with serum lipoprotein (8 weeks after dosage), the “VLDC-C, blood serum” value turned out to be 7.30 ± 2.05 mmol/L. Also, in the assay with serum lipoprotein (A/fter dosage), the “LDC-C, blood serum” value is 19.69 ± 8.33 mmol/L; the “TC, blood serum” value is on record as 26.92 ± 7.72 mmol/L; the “TC/HDL-C, blood serum” value came to 31.68 ± 10.14; the “TG, blood serum” value is listed as 2.04 ± 1.00 mmol/L. Also, the “VLDC-C, blood serum” value in the assay on serum lipoprotein (A/fter dosage) is recorded as 6.35 ± 1.42 mmol/L. Also, in the assay with serum lipoprotein (B/f testing), the “LDC-C, blood serum” value worked out at 0.87 ± 0.21 mmol/L; the “TC, blood serum” value is 2.27 ± 0.18 mmol/L; the “TC/HDL-C, blood serum” value came to 2.72 ± 0.85; the “TG, blood serum” value is reported as 0.72 ± 0.15 mmol/L. In addition, in the assay on serum lipoprotein (B/f testing), the “VLDC-C, blood serum” value was found to be 0.51 ± 0.27 mmol/L. The “TC content in aorta” value in the assay on aorta AS is 4.93 ± 2.62. The “Liver Coefficient” value with liver TG is 5.16 ± 0.60 g/100 g weight. For the same compound, in the assay with SOD, MDA, the “MDA, blood serum” value was determined as 5.63 ± 1.30 nmol/mL; the “SOD, Liver” value was 11.62 ± 0.38*** 10^3 u/g tissue weight; the “SOD, blood serum” value is listed as 816.7 ± 77.2 u/ml.

The record behind these values is US8486464B2, “Herbal composition for angina pectoris, method to prepare same and uses thereof” (Tasly Pharmaceutical Group Co. Ltd., priority 2000, dated 2013).
